# Data reported in ChEMBL document CHEMBL4130473, “Design, synthesis and biological evaluation of 4,7,12,12a-tetrahydro-5H-thieno[3',2':3,4]pyrido[1,2-b]isoquinolines as novel adenosine 5'-monophosphate-activated protein kinase (AMPK) indirect activators for the treatment of type 2 diabetes” (Eur J Med Chem, 2017).
# Active and inactive are the calls of the source. The rule behind the calls is not given here.
# What was measured:
# [1] = biological target: AMP-activated protein kinase (AMPK) alpha-1/beta-1/gamma-1 (Homo sapiens) (UniProt P54619+Q9Y478+Q13131); assay: Activation of human recombinant AMPKalpha1beta1gamma1 expressed in Escherichia coli at 20 uM incubated for 1 hr using serine/threonine kinase substrate
# [2] = tested on: L6; assay: Inhibition of oxygen consumption rate in rat L6 cells assessed as oxygen consumption level at 10 uM (reference value: 100 +/- 1.6%); type: functional; set-up: scale not given: the % may be the effect or the level left
# [3] = tested on: Hepatocyte; assay: Inhibition of glucose production in Sprague-Dawley rat primary hepatocytes grown under gluconeogenic medium assessed as glucose production level at 10 uM incubated for 6 hrs by glucose assay reagent based glucose oxidase method (reference value: 100%); type: functional; set-up: scale not given: the % may be the effect or the level left
# [4] = Inhibition of oxygen consumption rate in isolated mitochondria from rat L6 cells assessed as oxygen consumption level at 5 uM (reference value: 100 +/- 1.9%); type: functional; set-up: scale not given: the % may be the effect or the level left
# [5] = biological target: AMPK alpha1/beta2/gamma1 (Homo sapiens) (UniProt O43741+P54619+Q13131); assay: Activation of human recombinant AMPKalpha1beta2gamma1 expressed in Escherichia coli at 20 uM incubated for 1 hr using serine/threonine kinase substrate
# [6] = AUC in Sprague-Dawley rat at 2 mg/kg, iv; type: ADME, organism-based; details: in vivo
# [7] = AUC in Sprague-Dawley rat at 10 mg/kg, po; type: ADME, organism-based; details: in vivo
# [8] = biological target: AMPK alpha2/beta2/gamma1 (Homo sapiens) (UniProt P54646+O43741+P54619); assay: Activation of human recombinant AMPKalpha2beta2gamma1 expressed in Escherichia coli at 20 uM incubated for 1 hr using serine/threonine kinase substrate
# [9] = tested on: L6; assay: Inhibition of oxygen consumption rate in rat L6 cells; type: functional, cell-based
# [10] = MRT in Sprague-Dawley rat at 10 mg/kg, po; type: ADME, organism-based; details: in vivo
# [11] = tested on: Hepatocyte; assay: Potency index, ratio of berberine potency to compound potency for inhibition of glucose production in Sprague-Dawley rat primary hepatocytes grown under gluconeogenic medium aincubated for 6 hrs by glucose assay reagent based glucose oxidase method; type: functional
# [12] = Half life in Sprague-Dawley rat at 10 mg/kg, po; type: ADME, organism-based; details: in vivo
# [13] = Inhibition of oxygen consumption rate in isolated mitochondria from rat L6 cells assessed as oxygen consumption level at 10 uM (reference value: 100 +/- 1.9%); type: functional; set-up: scale not given: the % may be the effect or the level left
# [14] = tested on: L6; assay: Inhibition of oxygen consumption rate in isolated mitochondria from rat L6 cells; type: functional
# [15] = MRT in Sprague-Dawley rat at 2 mg/kg, iv; type: ADME, organism-based; details: in vivo
# [16] = tested on: Hepatocyte; assay: Inhibition of glucose production in Sprague-Dawley rat primary hepatocytes grown under gluconeogenic medium assessed as glucose production level at 20 uM incubated for 6 hrs by glucose assay reagent based glucose oxidase method (reference value: 100%); type: functional; set-up: scale not given: the % may be the effect or the level left
# [17] = tested on: L6; assay: Inhibition of mitochondrial membranes potential in rat L6 cells assessed as mitochondrial membranes potential level at 20 uM incubated for 40 mins by JC1 dye staining based fluorescence assay (reference value: 100 +/- 2.8%); type: functional; set-up: scale not given: the % may be the effect or the level left
# [18] = biological target: AMPK alpha2/beta1/gamma1 (Homo sapiens) (UniProt P54646+P54619+Q9Y478); assay: Activation of human recombinant AMPKalpha2beta1gamma1 expressed in Escherichia coli at 20 uM incubated for 1 hr using serine/threonine kinase substrate
# [19] = tested on: Mus musculus; assay: Antidiabetic activity in db/db mouse assessed as effect on glucose tolerance capacity by measuring blood glucose AUC level at 120 mg/kg/day dosed via gavage for 4 weeks by OGTT; type: functional, organism-based
# [20] = tested on: Rattus norvegicus; assay: Clearance in Sprague-Dawley rat at 2 mg/kg, iv; type: ADME, organism-based; details: in vivo
# [21] = biological target: AMP-activated protein kinase alpha-2/beta-1/gamma-3 (Homo sapiens) (UniProt P54646+Q9Y478+Q9UGI9); assay: Activation of human recombinant AMPKalpha2beta1gamma3 expressed in Escherichia coli at 20 uM incubated for 1 hr using serine/threonine kinase substrate
# [22] = biological target: AMP-activated protein kinase alpha-2/beta-2/gamma-2 (Homo sapiens) (UniProt P54646+O43741+Q9UGJ0); assay: Activation of human recombinant AMPKalpha2beta2gamma2 expressed in Escherichia coli at 20 uM incubated for 1 hr using serine/threonine kinase substrate
# [23] = Tmax in Sprague-Dawley rat at 2 mg/kg, iv; type: ADME, organism-based; details: in vivo
# [24] = tested on: L6; assay: Inhibition of oxygen consumption rate in rat L6 cells assessed as oxygen consumption level at 20 uM (reference value: 100 +/- 1.6%); type: functional; set-up: scale not given: the % may be the effect or the level left
# [25] = Cmax in Sprague-Dawley rat at 10 mg/kg, po; type: ADME, organism-based; set-up: dose 10 mg/kg, route oral; details: in vivo
# [26] = Cmax in Sprague-Dawley rat at 2 mg/kg, iv; type: ADME, organism-based; set-up: dose 2 mg/kg, route intravenous; details: in vivo
# [27] = Half life in Sprague-Dawley rat at 2 mg/kg, iv; type: ADME, organism-based; details: in vivo
# [28] = Inhibition of oxygen consumption rate in isolated mitochondria from rat L6 cells assessed as oxygen consumption level at 1.2 uM (reference value: 100 +/- 1.9%); type: functional; set-up: scale not given: the % may be the effect or the level left
# [29] = tested on: Mus musculus; assay: Antidiabetic activity in db/db mouse assessed as reduction in fasting blood glucose level at 120 mg/kg/day dosed via gavage for 4 weeks measured during 2 to 4 weeks; type: functional, organism-based
# [30] = tested on: Hepatocyte; assay: Inhibition of glucose production in Sprague-Dawley rat primary hepatocytes grown under gluconeogenic medium assessed as glucose production level at 5 uM incubated for 6 hrs by glucose assay reagent based glucose oxidase method (reference value: 100%); type: functional; set-up: scale not given: the % may be the effect or the level left
# [31] = tested on: L6; assay: Stimulation of glucose consumption in rat L6 cells at 20 uM incubated for 12 hrs by glucose assay reagent based glucose oxidase method relative to untreated control; type: functional
# [32] = biological target: AMP-activated protein kinase alpha-1/beta-2/gamma-3 (Homo sapiens) (UniProt O43741+Q13131+Q9UGI9); assay: Activation of human recombinant AMPKalpha1beta2gamma3 expressed in Escherichia coli at 20 uM incubated for 1 hr using serine/threonine kinase substrate
# [33] = AUCt in C57BL/6J mouse at 10 mg/kg, po; type: ADME, organism-based; details: in vivo
# [34] = Inhibition of oxygen consumption rate in isolated mitochondria from rat L6 cells assessed as oxygen consumption level at 2.5 uM (reference value: 100 +/- 1.9%); type: functional; set-up: scale not given: the % may be the effect or the level left
# [35] = biological target: AMPK alpha1/beta1/gamma2 (Homo sapiens) (UniProt Q9UGJ0+Q9Y478+Q13131); assay: Activation of human recombinant AMPKalpha1beta1gamma2 expressed in Escherichia coli at 20 uM incubated for 1 hr using serine/threonine kinase substrate
# [36] = Tmax in C57BL/6J mouse at 10 mg/kg, po; type: ADME, organism-based; details: in vivo
# [37] = tested on: L6; assay: Activation of AMPKalpha in rat L6 cells assessed as increase in AMPKalpha Thr172 phosphorylation incubated for 1 hrs by Western blot method; type: cell-based
# [38] = biological target: Voltage-gated inwardly rectifying potassium channel KCNH2 (Homo sapiens, UniProt Q12809); assay: Inhibition of human ERG by patch clamp assay
# [39] = AUCt in Sprague-Dawley rat at 2 mg/kg, iv; type: ADME, organism-based; details: in vivo
# [40] = tested on: L6; assay: Activation of AMPKalpha in rat L6 cells assessed as increase in ACC phosphorylation incubated for 1 hrs by Western blot method; type: cell-based
# [41] = tested on: Hepatocyte; assay: Inhibition of glucose production in Sprague-Dawley rat primary hepatocytes grown under gluconeogenic medium incubated for 6 hrs by glucose assay reagent based glucose oxidase method (reference value: 100%); type: functional, cell-based
# [42] = Tmax in Sprague-Dawley rat at 10 mg/kg, po; type: ADME, organism-based; details: in vivo
# [43] = MRT in C57BL/6J mouse at 10 mg/kg, po; type: ADME, organism-based; details: in vivo
# [44] = AUCt in Sprague-Dawley rat at 10 mg/kg, po; type: ADME, organism-based; details: in vivo
# [45] = Cmax in C57BL/6J mouse at 10 mg/kg, po; type: ADME, organism-based; set-up: dose 10 mg/kg, route oral; details: in vivo
# [46] = Oral bioavailability in Sprague-Dawley rat at 10 mg/kg; type: ADME, organism-based; details: in vivo
# [47] = AUC in C57BL/6J mouse at 10 mg/kg, po; type: ADME, organism-based; details: in vivo
# Chain of AMP-activated protein kinase alpha-2/beta-1/gamma-3 (Homo sapiens) (P54646 whole entry): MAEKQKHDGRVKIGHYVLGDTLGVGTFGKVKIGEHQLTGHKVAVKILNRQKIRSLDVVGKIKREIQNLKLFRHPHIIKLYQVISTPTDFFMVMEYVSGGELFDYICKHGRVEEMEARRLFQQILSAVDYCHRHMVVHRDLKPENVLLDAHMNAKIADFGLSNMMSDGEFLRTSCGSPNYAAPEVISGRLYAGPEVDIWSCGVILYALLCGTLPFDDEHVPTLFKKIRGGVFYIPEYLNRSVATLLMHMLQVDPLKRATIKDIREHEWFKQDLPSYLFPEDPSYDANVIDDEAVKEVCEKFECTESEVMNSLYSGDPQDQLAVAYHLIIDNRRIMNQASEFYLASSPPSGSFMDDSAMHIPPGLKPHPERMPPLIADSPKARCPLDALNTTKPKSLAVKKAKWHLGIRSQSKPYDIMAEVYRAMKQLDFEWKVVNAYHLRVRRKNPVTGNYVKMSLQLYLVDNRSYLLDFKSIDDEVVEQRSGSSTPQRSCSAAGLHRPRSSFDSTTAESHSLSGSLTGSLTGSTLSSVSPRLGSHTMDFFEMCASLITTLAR
# Chain of AMP-activated protein kinase alpha-2/beta-1/gamma-3 (Homo sapiens) (Q9UGI9 whole entry partner): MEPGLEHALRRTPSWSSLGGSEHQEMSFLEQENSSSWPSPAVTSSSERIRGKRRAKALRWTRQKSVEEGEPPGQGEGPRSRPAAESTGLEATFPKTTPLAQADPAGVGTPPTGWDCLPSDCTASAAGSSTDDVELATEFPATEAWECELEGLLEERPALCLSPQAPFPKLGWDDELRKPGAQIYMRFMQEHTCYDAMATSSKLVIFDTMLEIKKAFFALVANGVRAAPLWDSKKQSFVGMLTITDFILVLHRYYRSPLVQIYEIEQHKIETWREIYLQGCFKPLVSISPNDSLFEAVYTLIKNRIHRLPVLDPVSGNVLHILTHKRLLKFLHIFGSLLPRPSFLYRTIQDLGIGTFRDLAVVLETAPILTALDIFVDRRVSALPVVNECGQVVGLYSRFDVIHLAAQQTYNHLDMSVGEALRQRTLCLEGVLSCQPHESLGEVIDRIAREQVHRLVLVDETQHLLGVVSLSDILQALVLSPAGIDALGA
# Chain of AMP-activated protein kinase alpha-2/beta-1/gamma-3 (Homo sapiens) (Q9Y478 2-270 partner limits assumed): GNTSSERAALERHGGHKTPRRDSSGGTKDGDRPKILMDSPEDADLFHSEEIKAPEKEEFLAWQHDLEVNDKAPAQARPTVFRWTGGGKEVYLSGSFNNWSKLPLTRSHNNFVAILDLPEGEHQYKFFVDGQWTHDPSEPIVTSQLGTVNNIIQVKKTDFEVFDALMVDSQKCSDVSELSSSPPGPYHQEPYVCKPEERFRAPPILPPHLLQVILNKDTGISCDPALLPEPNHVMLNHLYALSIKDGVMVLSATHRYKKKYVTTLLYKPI
# Chain of Voltage-gated inwardly rectifying potassium channel KCNH2 (Q12809 whole entry): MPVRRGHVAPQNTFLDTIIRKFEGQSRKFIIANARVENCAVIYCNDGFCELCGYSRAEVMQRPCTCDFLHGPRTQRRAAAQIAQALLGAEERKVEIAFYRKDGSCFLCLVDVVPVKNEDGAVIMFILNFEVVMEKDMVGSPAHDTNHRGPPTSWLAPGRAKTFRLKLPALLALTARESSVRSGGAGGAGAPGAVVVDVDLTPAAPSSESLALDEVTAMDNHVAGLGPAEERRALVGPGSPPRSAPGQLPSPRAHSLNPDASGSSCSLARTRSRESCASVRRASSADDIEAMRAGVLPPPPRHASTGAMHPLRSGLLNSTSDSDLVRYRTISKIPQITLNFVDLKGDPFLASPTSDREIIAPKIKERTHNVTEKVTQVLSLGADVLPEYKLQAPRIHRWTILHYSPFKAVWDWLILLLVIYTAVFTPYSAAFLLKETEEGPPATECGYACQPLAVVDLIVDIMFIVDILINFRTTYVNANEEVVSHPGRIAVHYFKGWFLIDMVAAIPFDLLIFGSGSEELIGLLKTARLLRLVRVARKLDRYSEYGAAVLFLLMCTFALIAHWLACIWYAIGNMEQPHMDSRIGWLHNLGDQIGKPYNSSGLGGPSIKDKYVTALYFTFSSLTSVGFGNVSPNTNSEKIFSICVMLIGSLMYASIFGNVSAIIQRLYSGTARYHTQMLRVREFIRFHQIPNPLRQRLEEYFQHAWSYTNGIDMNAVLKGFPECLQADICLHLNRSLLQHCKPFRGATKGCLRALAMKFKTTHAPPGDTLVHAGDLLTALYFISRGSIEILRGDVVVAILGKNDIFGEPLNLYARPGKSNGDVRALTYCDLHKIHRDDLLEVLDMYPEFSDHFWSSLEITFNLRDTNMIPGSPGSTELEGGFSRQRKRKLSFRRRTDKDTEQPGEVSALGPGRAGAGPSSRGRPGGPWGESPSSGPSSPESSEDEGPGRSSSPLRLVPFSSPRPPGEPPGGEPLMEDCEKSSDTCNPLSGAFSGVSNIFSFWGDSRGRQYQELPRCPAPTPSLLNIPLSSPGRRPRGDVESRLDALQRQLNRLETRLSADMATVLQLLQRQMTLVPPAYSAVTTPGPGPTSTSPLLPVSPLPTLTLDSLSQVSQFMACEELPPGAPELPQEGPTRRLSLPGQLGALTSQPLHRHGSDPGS
# Chain of AMPK alpha2/beta2/gamma1 (Homo sapiens) (O43741 whole entry, looked up): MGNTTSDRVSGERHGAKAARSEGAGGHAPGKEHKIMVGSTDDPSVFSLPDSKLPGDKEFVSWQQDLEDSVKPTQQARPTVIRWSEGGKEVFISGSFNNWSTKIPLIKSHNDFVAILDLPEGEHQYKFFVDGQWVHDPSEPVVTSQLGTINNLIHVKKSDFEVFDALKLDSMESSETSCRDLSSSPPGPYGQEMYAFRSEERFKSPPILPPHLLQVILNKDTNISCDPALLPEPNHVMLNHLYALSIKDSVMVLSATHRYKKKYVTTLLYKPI
# Chain of AMPK alpha2/beta2/gamma1 (Homo sapiens) (P54619 whole entry, looked up): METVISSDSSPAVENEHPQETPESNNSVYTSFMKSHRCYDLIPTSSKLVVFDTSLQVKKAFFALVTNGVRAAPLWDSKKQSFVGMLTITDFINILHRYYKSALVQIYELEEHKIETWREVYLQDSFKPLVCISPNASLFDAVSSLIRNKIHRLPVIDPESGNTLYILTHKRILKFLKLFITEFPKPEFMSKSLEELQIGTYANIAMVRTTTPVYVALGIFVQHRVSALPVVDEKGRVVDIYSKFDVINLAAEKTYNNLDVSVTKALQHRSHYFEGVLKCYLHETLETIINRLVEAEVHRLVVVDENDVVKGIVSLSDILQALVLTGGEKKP
# Chain of AMPK alpha2/beta2/gamma1 (Homo sapiens) (P54646 whole entry, looked up): as the sequence (P54646 whole entry) above
# Chain of AMPK alpha1/beta2/gamma1 (Homo sapiens) (O43741 whole entry, looked up): as the sequence (O43741 whole entry, looked up) above
# Chain of AMPK alpha1/beta2/gamma1 (Homo sapiens) (P54619 whole entry, looked up): as the sequence (P54619 whole entry, looked up) above
# Chain of AMPK alpha1/beta2/gamma1 (Homo sapiens) (Q13131 whole entry, looked up): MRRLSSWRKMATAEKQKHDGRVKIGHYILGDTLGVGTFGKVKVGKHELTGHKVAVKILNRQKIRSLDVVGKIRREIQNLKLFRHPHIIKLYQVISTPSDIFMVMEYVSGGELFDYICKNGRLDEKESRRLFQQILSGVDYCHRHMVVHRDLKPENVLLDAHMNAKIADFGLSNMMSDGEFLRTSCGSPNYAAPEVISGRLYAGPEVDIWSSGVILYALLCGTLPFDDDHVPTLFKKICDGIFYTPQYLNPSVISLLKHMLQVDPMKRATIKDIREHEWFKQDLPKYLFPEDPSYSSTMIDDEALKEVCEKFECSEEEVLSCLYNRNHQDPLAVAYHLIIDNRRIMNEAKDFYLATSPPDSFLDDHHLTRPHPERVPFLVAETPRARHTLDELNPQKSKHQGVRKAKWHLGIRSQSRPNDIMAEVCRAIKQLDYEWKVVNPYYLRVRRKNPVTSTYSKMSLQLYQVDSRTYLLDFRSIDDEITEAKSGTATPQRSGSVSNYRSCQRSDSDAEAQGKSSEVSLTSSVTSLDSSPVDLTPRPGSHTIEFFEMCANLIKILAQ
smiles,measurement,setting,value
CCc1cc2c(s1)CCN1Cc3c(OC)ccc(OC)c3CC21 (configuration not stated),Activity,[1],inactive
same,Activity,[2],54%
same,Activity,[3],16.3%
same,Activity,[4],54%
same,Activity,[5],inactive
same,AUC,[6],432 ng·h/mL
same,AUC,[7],889 ng·h/mL
same,Activity,[8],inactive
same,inhibition,[9],Dose-dependent effect
same,MRT,[10],5.5 h
same,Ratio,[11],1.7
same,half-life,[12],7.2 h
same,Activity,[13],41.7%
same,inhibition,[14],Dose-dependent effect
same,MRT,[15],5.8 h
same,Activity,[16],14.9%
same,Activity,[17],59.5%
same,Activity,[18],inactive
same,Activity,[19],inactive
same,clearance,[20],76.7 mL/min/kg
same,Activity,[21],inactive
same,Activity,[22],inactive
same,Tmax,[23],0.25 h
same,Activity,[24],47.5%
same,Cmax,[25],162 ng/mL
same,Cmax,[26],114 ng/mL
same,half-life,[27],10.8 h
same,Activity,[28],76.2%
same,Activity,[29],Active
same,Activity,[30],25.7%
same,Activity,[31],228.3%
same,Activity,[32],inactive
same,AUC(0-t),[33],188 ng·h/mL
same,Activity,[34],66.3%
same,Activity,[35],inactive
same,Tmax,[36],0.25 h
same,Activity,[37],Dose-dependent effect
same,IC50,[38],10.5 µM
same,AUC(0-t),[39],364 ng·h/mL
same,Activity,[40],Dose-dependent effect
same,inhibition,[41],Dose-dependent effect
same,Tmax,[42],0.5 h
same,MRT,[43],5.1 h
same,AUC(0-t),[44],825 ng·h/mL
same,Cmax,[45],113 ng/mL
same,bioavailability,[46],45.4%
same,AUC,[47],244 ng·h/mL
